Assay results reported in the supplement of paper PMC8149375.

How the values were obtained:
Conditions in all cases: treatment: drug + dasatinib (fixed dose, not stated); 5 days
A498 [1] = test: GI50 of drug in presence of dasatinib; higher = less potent
Procedure: (§1)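 Primary HTS combination arm: 8 RCC cell lines treated with 8 doses (up to 10 uM) of each library drug plus a fixed dose of dasatinib (dose not stated) for 5 days; viability read by CellTiter-Glo and normalised to DMSO. GI50 was fitted with XLfit, AUC is the area under the dose-response curve, and minimum viability is the lowest fraction of DMSO viability across doses.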

786-O [2] = test: as above
Procedure: as §1

769-P [3] = test: as above
Procedure: as §1

UO-31 [4] = test: as above
Procedure: as §1

SN12C [5] = test: as above
Procedure: as §1

TK-10 [6] = test: as above
Procedure: as §1

ACHN [7] = test: as above
Procedure: as §1

CAKI-1 [8] = test: as above
Procedure: as §1

A498 [9] = test: minimum viability across doses, drug + dasatinib, relative to DMSO (fraction); higher = less growth inhibition
Procedure: as §1

786-O [10] = test: as above
Procedure: as §1

769-P [11] = test: as above
Procedure: as §1

UO-31 [12] = test: as above
Procedure: as §1

SN12C [13] = test: as above
Procedure: as §1

TK-10 [14] = test: as above
Procedure: as §1

ACHN [15] = test: as above
Procedure: as §1

CAKI-1 [16] = test: as above
Procedure: as §1

A498 [17] = test: AUC of dose-response viability curve, drug + dasatinib, normalised to DMSO (arbitrary (AUC of normalised viability)); higher = less growth inhibition
Procedure: as §1

786-O [18] = test: as above
Procedure: as §1

769-P [19] = test: as above
Procedure: as §1

UO-31 [20] = test: as above
Procedure: as §1

SN12C [21] = test: as above
Procedure: as §1

TK-10 [22] = test: as above
Procedure: as §1

ACHN [23] = test: as above
Procedure: as §1

CAKI-1 [24] = test: as above
Procedure: as §1

O=C(c1ccc(/C=C/c2n[nH]c3ccccc23)cc1)N1CCNCC1 [KW 2449] + Cc1nc(Nc2ncc(C(=O)Nc3c(C)cccc3Cl)s2)cc(N2CCN(CCO)CC2)n1 [dasatinib]
GI50 of drug (A498 [1]): > 10 µM
GI50 of drug (786-O [2]): 8.58 µM
GI50 of drug (769-P [3]): 2.78 µM
GI50 of drug (UO-31 [4]): 3.52 µM
GI50 of drug (SN12C [5]): 1.24 µM
GI50 of drug (TK-10 [6]): > 10 µM
GI50 of drug (ACHN [7]): 0.0785 µM
GI50 of drug (CAKI-1 [8]): 2.54 µM
minimum viability across doses (A498 [9]): 0.521
minimum viability across doses (786-O [10]): 0.425
minimum viability across doses (769-P [11]): 0.162
minimum viability across doses (UO-31 [12]): 0.0258
minimum viability across doses (SN12C [13]): 0.0456
minimum viability across doses (TK-10 [14]): 0.611
minimum viability across doses (ACHN [15]): 0.159
minimum viability across doses (CAKI-1 [16]): 0.15
AUC of dose-response viability curve (A498 [17]): 3.27
AUC of dose-response viability curve (786-O [18]): 2.58
AUC of dose-response viability curve (769-P [19]): 2.33
AUC of dose-response viability curve (UO-31 [20]): 3.7
AUC of dose-response viability curve (SN12C [21]): 2.05
AUC of dose-response viability curve (TK-10 [22]): 2.89
AUC of dose-response viability curve (ACHN [23]): 1.64
AUC of dose-response viability curve (CAKI-1 [24]): 2.03

O=C(Cc1ccc(-c2ccc(OCCN3CCOCC3)cc2)cn1)NCc1ccccc1 [KX2-391] + Cc1nc(Nc2ncc(C(=O)Nc3c(C)cccc3Cl)s2)cc(N2CCN(CCO)CC2)n1 [dasatinib]
GI50 of drug (A498 [1]): 0.0776 µM
GI50 of drug (786-O [2]): 0.0149 µM
GI50 of drug (769-P [3]): 0.0359 µM
GI50 of drug (UO-31 [4]): 0.0926 µM
GI50 of drug (SN12C [5]): 0.0467 µM
GI50 of drug (TK-10 [6]): 0.104 µM
GI50 of drug (ACHN [7]): 0.0433 µM
GI50 of drug (CAKI-1 [8]): 0.0295 µM
minimum viability across doses (A498 [9]): 0.166
minimum viability across doses (786-O [10]): 0.00445
minimum viability across doses (769-P [11]): 0.0616
minimum viability across doses (UO-31 [12]): 0.00946
minimum viability across doses (SN12C [13]): 0.114
minimum viability across doses (TK-10 [14]): 0.243
minimum viability across doses (ACHN [15]): 0.1
minimum viability across doses (CAKI-1 [16]): 0.111
AUC of dose-response viability curve (A498 [17]): 1.78
AUC of dose-response viability curve (786-O [18]): 0.764
AUC of dose-response viability curve (769-P [19]): 1.09
AUC of dose-response viability curve (UO-31 [20]): 1.77
AUC of dose-response viability curve (SN12C [21]): 1.34
AUC of dose-response viability curve (TK-10 [22]): 1.69
AUC of dose-response viability curve (ACHN [23]): 1.23
AUC of dose-response viability curve (CAKI-1 [24]): 1.12

COc1cc2nccc(Oc3ccc(NC(=O)Nc4ccc(F)cc4F)c(F)c3)c2cc1OC [Ki8751] + Cc1nc(Nc2ncc(C(=O)Nc3c(C)cccc3Cl)s2)cc(N2CCN(CCO)CC2)n1 [dasatinib]
GI50 of drug (A498 [1]): > 10 µM
GI50 of drug (786-O [2]): 8.55 µM
GI50 of drug (769-P [3]): 1.09 µM
GI50 of drug (UO-31 [4]): > 10 µM
GI50 of drug (SN12C [5]): > 10 µM
GI50 of drug (TK-10 [6]): > 10 µM
GI50 of drug (ACHN [7]): 1.28 µM
GI50 of drug (CAKI-1 [8]): 1.41 µM
minimum viability across doses (A498 [9]): 1.04
minimum viability across doses (786-O [10]): 0.483
minimum viability across doses (769-P [11]): 0.304
minimum viability across doses (UO-31 [12]): 0.735
minimum viability across doses (SN12C [13]): 0.546
minimum viability across doses (TK-10 [14]): 0.683
minimum viability across doses (ACHN [15]): 0.352
minimum viability across doses (CAKI-1 [16]): 0.154
AUC of dose-response viability curve (A498 [17]): 4.09
AUC of dose-response viability curve (786-O [18]): 2.33
AUC of dose-response viability curve (769-P [19]): 2.15
AUC of dose-response viability curve (UO-31 [20]): 3.73
AUC of dose-response viability curve (SN12C [21]): 2.37
AUC of dose-response viability curve (TK-10 [22]): 2.6
AUC of dose-response viability curve (ACHN [23]): 1.89
AUC of dose-response viability curve (CAKI-1 [24]): 1.95

CS(=O)(=O)CCNCc1ccc(-c2ccc3ncnc(Nc4ccc(OCc5cccc(F)c5)c(Cl)c4)c3c2)o1.Cc1ccc(S(=O)(=O)O)cc1.Cc1ccc(S(=O)(=O)O)cc1 [Lapatinib Ditosylate (Tykerb)] + Cc1nc(Nc2ncc(C(=O)Nc3c(C)cccc3Cl)s2)cc(N2CCN(CCO)CC2)n1 [dasatinib]
GI50 of drug (A498 [1]): > 10 µM
GI50 of drug (786-O [2]): 6.69 µM
GI50 of drug (769-P [3]): 0.401 µM
GI50 of drug (UO-31 [4]): 5.85 µM
GI50 of drug (SN12C [5]): > 10 µM
GI50 of drug (TK-10 [6]): 3.34 µM
GI50 of drug (ACHN [7]): 0.176 µM
GI50 of drug (CAKI-1 [8]): 3.85 µM
minimum viability across doses (A498 [9]): 0.798
minimum viability across doses (786-O [10]): 0.426
minimum viability across doses (769-P [11]): 0.18
minimum viability across doses (UO-31 [12]): 0.35
minimum viability across doses (SN12C [13]): 0.606
minimum viability across doses (TK-10 [14]): 0.3
minimum viability across doses (ACHN [15]): 0.352
minimum viability across doses (CAKI-1 [16]): 0.211
AUC of dose-response viability curve (A498 [17]): 3.08
AUC of dose-response viability curve (786-O [18]): 2.41
AUC of dose-response viability curve (769-P [19]): 1.77
AUC of dose-response viability curve (UO-31 [20]): 3.08
AUC of dose-response viability curve (SN12C [21]): 2.34
AUC of dose-response viability curve (TK-10 [22]): 2.34
AUC of dose-response viability curve (ACHN [23]): 1.7
AUC of dose-response viability curve (CAKI-1 [24]): 2.03

Nc1cccc2c1CN(C1CCC(=O)NC1=O)C2=O (stereo not drawn) [Lenalidomide (Revlimid)] + Cc1nc(Nc2ncc(C(=O)Nc3c(C)cccc3Cl)s2)cc(N2CCN(CCO)CC2)n1 [dasatinib]
GI50 of drug (A498 [1]): > 10 µM
GI50 of drug (786-O [2]): < 0.003 µM
GI50 of drug (769-P [3]): > 10 µM
GI50 of drug (UO-31 [4]): > 10 µM
GI50 of drug (SN12C [5]): > 10 µM
GI50 of drug (TK-10 [6]): > 10 µM
GI50 of drug (ACHN [7]): > 10 µM
GI50 of drug (CAKI-1 [8]): > 10 µM
minimum viability across doses (A498 [9]): 0.989
minimum viability across doses (786-O [10]): 0.488
minimum viability across doses (769-P [11]): 0.497
minimum viability across doses (UO-31 [12]): 1.19
minimum viability across doses (SN12C [13]): 0.706
minimum viability across doses (TK-10 [14]): 0.666
minimum viability across doses (ACHN [15]): 0.503
minimum viability across doses (CAKI-1 [16]): 0.656
AUC of dose-response viability curve (A498 [17]): 3.71
AUC of dose-response viability curve (786-O [18]): 2.61
AUC of dose-response viability curve (769-P [19]): 2.51
AUC of dose-response viability curve (UO-31 [20]): 4.59
AUC of dose-response viability curve (SN12C [21]): 2.55
AUC of dose-response viability curve (TK-10 [22]): 2.56
AUC of dose-response viability curve (ACHN [23]): 2.05
AUC of dose-response viability curve (CAKI-1 [24]): 2.41

Cc1ccc(F)c(NC(=O)Nc2ccc(-c3cccc4[nH]nc(N)c34)cc2)c1 [Linifanib (ABT-869)] + Cc1nc(Nc2ncc(C(=O)Nc3c(C)cccc3Cl)s2)cc(N2CCN(CCO)CC2)n1 [dasatinib]
GI50 of drug (A498 [1]): 9.11 µM
GI50 of drug (786-O [2]): > 10 µM
GI50 of drug (769-P [3]): 4 µM
GI50 of drug (UO-31 [4]): > 10 µM
GI50 of drug (SN12C [5]): 1.87 µM
GI50 of drug (TK-10 [6]): 3.45 µM
GI50 of drug (ACHN [7]): 3.71 µM
GI50 of drug (CAKI-1 [8]): 7.59 µM
minimum viability across doses (A498 [9]): 0.279
minimum viability across doses (786-O [10]): 0.557
minimum viability across doses (769-P [11]): 0.27
minimum viability across doses (UO-31 [12]): 0.729
minimum viability across doses (SN12C [13]): 0.312
minimum viability across doses (TK-10 [14]): 0.231
minimum viability across doses (ACHN [15]): 0.244
minimum viability across doses (CAKI-1 [16]): 0.213
AUC of dose-response viability curve (A498 [17]): 3.28
AUC of dose-response viability curve (786-O [18]): 2.63
AUC of dose-response viability curve (769-P [19]): 2.33
AUC of dose-response viability curve (UO-31 [20]): 3.5
AUC of dose-response viability curve (SN12C [21]): 2.25
AUC of dose-response viability curve (TK-10 [22]): 2.58
AUC of dose-response viability curve (ACHN [23]): 2.4
AUC of dose-response viability curve (CAKI-1 [24]): 2.21

C[C@]1(O)C[C@@H](c2nc(-c3ccc4ccc(-c5ccccc5)nc4c3)c3c(N)nccn32)C1 [Linsitinib (OSI-906)] + Cc1nc(Nc2ncc(C(=O)Nc3c(C)cccc3Cl)s2)cc(N2CCN(CCO)CC2)n1 [dasatinib]
GI50 of drug (A498 [1]): > 10 µM
GI50 of drug (786-O [2]): > 10 µM
GI50 of drug (769-P [3]): > 10 µM
GI50 of drug (UO-31 [4]): > 10 µM
GI50 of drug (SN12C [5]): > 10 µM
GI50 of drug (TK-10 [6]): > 10 µM
GI50 of drug (ACHN [7]): 2.97 µM
GI50 of drug (CAKI-1 [8]): 2.6 µM
minimum viability across doses (A498 [9]): 0.824
minimum viability across doses (786-O [10]): 0.689
minimum viability across doses (769-P [11]): 0.527
minimum viability across doses (UO-31 [12]): 0.647
minimum viability across doses (SN12C [13]): 0.592
minimum viability across doses (TK-10 [14]): 0.55
minimum viability across doses (ACHN [15]): 0.361
minimum viability across doses (CAKI-1 [16]): 0.259
AUC of dose-response viability curve (A498 [17]): 3.31
AUC of dose-response viability curve (786-O [18]): 2.64
AUC of dose-response viability curve (769-P [19]): 2.3
AUC of dose-response viability curve (UO-31 [20]): 3.19
AUC of dose-response viability curve (SN12C [21]): 2.28
AUC of dose-response viability curve (TK-10 [22]): 2.43
AUC of dose-response viability curve (ACHN [23]): 1.89
AUC of dose-response viability curve (CAKI-1 [24]): 2.2
